Experimental data: patent US10799475B2, “Substituted phenyl aziridine precursor analogs for inhibiting androgen-independent prostate cancer cell growth” (Northwestern University, priority 2007, dated 2020)

Columns and labels:
GR [1] = target: T1, GR (Homo sapiens, UniProt P04150); test: TAT.Luc dual Luciferase assay of GR transactivation in PC cells; assay type: cell-based; parameters: expressed in transfected cells; host or cells: LNCaP-GR (lentiviral GR); also DU145 and PC3 (endogenous GR); conditions: LNCaP-GR, DU145 and PC3 cells, CpdA 10^−5 M, 24 hours
T1 sequence (P04150 1-777): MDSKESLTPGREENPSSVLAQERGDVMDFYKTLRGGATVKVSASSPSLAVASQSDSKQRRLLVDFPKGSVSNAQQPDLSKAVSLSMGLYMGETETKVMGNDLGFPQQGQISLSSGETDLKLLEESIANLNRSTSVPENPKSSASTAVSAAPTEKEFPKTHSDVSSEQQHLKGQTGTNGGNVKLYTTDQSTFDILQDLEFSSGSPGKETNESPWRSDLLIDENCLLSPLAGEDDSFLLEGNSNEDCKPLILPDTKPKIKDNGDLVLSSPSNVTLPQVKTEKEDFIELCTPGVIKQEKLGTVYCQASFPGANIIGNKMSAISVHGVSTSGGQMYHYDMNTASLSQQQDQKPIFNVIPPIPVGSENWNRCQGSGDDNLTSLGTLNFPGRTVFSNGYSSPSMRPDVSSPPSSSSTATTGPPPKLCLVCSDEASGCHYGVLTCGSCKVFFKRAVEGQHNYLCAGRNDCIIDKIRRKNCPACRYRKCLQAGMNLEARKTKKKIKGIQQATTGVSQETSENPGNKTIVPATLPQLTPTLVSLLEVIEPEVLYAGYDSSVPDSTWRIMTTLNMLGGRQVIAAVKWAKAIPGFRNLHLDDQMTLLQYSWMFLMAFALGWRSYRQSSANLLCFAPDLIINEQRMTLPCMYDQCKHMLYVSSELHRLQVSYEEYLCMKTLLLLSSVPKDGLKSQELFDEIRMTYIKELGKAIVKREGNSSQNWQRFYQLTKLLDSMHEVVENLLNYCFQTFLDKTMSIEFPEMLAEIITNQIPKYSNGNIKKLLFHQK
Protocol: FIG. 3. Effect of CpdA on GR function in PC cells. A. & B. CpdA-activated GR nuclear translocation. Cells were treated with CpdA, glucocorticoid FA, or anti-glucocorticoid RU486. Panel A (immunofluorescence). Panel B (Western blotting of nuclear protein using HDAC-1 and β-tubulin as protein loading controls). C. CpdA decreased GR-DNA binding (EMSA, nuclear proteins). LNCaP-GR cells were treated with 0.01% DMSO (control), Dex (10^−7 M) or CpdA (10^−5 M) for 4 hours. D. & E. CpdA effect on GR function. PC cells were transiently transfected with TAT.Luc (D) or κB.Luc (E), and control Renilla Luciferase reporters, treated with Dex (10^−6 M) or CpdA (10^−5 M) for 24 hours. For activation of NF-κB, cells were co-transfected with CMV.IKKβ plasmid (in panel E). Reporter activity was assessed by dual Luciferase assay and presented as factor of change.
FIG. 4. CpdA effect on GR function. A. & B. PC cells were transiently transfected with TAT.Luc (A) or κB.Luc (B), and control Renilla Luciferase reporters. Cells were treated with Dex (10^−6 M) and CpdA (10^−5 M) for 24 hours. For activation of NF-κB (as shown in panel B), cells were co-transfected with CMV.IKKβ plasmid. Reporter activity was assessed by dual Luciferase assay and presented as factor of change. […]

PC cells = assay type: cell-based, human; conditions: 72 hours
GR [2] = target: T1, GR; test: GR nuclear translocation, Western blotting and immunofluorescence in LNCaP-GR cells; assay type: cell-based; parameters: expressed in transfected cells; host or cells: LNCaP-GR (lentiviral GR); also DU145 and PC3 (endogenous GR)
PC3 cells = assay type: cell-based, human
AR = target: T2, AR (Homo sapiens, UniProt P10275); conditions: cited from earlier work
T2 sequence (P10275 1-920): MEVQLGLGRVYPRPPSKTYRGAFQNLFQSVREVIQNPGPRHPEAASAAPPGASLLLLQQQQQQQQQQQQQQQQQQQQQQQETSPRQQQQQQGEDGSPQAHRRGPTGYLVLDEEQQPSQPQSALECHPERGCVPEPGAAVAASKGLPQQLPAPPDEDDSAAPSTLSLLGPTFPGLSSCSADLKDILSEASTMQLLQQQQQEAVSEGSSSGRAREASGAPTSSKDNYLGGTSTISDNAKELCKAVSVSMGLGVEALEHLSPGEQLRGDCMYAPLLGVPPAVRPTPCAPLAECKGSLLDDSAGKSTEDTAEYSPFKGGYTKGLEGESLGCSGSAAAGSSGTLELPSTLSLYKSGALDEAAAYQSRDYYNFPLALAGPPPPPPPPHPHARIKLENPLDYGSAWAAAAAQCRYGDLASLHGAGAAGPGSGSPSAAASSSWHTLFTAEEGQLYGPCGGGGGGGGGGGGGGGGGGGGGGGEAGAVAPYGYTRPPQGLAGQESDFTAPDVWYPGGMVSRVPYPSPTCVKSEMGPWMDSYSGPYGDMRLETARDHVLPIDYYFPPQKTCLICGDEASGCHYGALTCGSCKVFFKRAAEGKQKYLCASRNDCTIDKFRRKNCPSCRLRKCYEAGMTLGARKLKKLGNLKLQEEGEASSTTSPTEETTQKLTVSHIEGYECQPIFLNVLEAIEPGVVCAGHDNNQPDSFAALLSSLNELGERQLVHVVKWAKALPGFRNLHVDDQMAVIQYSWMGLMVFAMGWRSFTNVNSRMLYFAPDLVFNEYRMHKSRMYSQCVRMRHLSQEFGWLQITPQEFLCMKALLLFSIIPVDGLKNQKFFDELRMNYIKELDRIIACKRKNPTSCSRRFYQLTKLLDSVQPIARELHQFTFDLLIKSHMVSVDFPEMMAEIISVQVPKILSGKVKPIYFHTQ

For `CNCC(Cl)c1ccc(OC(C)=O)cc1.Cl` (stereo not drawn) [CpdA, 2-(4-acetoxyphenyl)-2-chloro-N-methyl-ethylammonium chloride], the “GR transcriptional activation (TAT.Luc)” value (GR [1]) was “inhibit GR transcriptional activation”, the “concentration range of strong cytostatic effect” value (PC cells) was 2−10 μM and the GR nuclear translocation (GR [2]) was “induce GR nuclear import”. The “growth inhibition vs vehicle-treated control” value (PC3 cells) was 65-85%, the “growth inhibition, concentration-dependent” value (PC3 cells; CpdA 10^−9 M−2×10^−5 M, 72 hours) was “strongly inhibit” and the “competition for AR binding” value (AR) was “does not compete with androgen for AR binding”.
